Values quoted from earlier work, collected in patent US20150139938A1, “Methods and Compositions for Improving Pial Collateral Circulation and Treating Blood Clotting Disorders” (Ohio State Innovation Foundation, priority 2012, published 2015).

Tested on: stroke-induced lesion in the brain of spontaneously hypertensive rats
Details: orally supplemented, earlier work of the inventors

CC(C)=CCC/C(C)=C/CC/C(C)=C/CC[C@]1(C)CCc2c(C)c(O)c(C)c(C)c2O1 [αTCT, α-tocotrienol]
protection against stroke-induced lesion in the brain: protects
